Values of other authors as cited in patent publication US7183417B2, “Simple stereocontrolled synthesis of salinosporamide A” (priority 2004, dated 2007).

Tests used:
proteasome = details: qualitative statement from the literature
many tumor cell lines = details: read-out: in vitro cytotoxic activity IC50

CC(C)[C@H](O)[C@@]12NC(=O)[C@H](C)[C@@H]1OC2=O [omuralide, reference compound]
proteasome inhibition (in words) (proteasome): potent inhibitor of proteasome function

C[C@@]12OC(=O)[C@]1([C@@H](O)[C@@H]1C=CCCC1)NC(=O)[C@@H]2CCCl [Salinosporamide A]
IC50 (many tumor cell lines): ≤ 0.01 µM | proteasome inhibition (in words) (proteasome): even more effective proteasome inhibitor than omuralide
